# In EP0091090A2, “Bipyridine substituted imidazolidene copper complex and its use in food-producing animals, and bipyridine, 2,2'-(2-imidazolidinylidene) di-copper complex and use in animals” (INTERNATIONAL MINERALS & CHEMICAL CORPORATION, priority 1982, dated 1983):
# Tested on: rumen fluid batch culture
# Assay: Rumen fluid batch culture test: volatile fatty acid, gas (CH4 + H2), protein and amino acid accumulation (Example 2)
# Format: cell-based, steers
# Design: HFo (formate) / HAc (acetate) / HPr (propionate) / HiBu (isobutyrate) / HBu (butyrate) / HiVal (isovalerate) / Total / Caloric Value of H2 / Caloric Value of HFo / Caloric Value of HAc / Caloric Value of HPr / Caloric Value of HiBu / Caloric Value of HBu / Caloric Value of HiVal / Caloric Value of CH3: unit not given here
# Protocol: The above Formula IV composition was tested to determine its effectiveness as a feed additive for ruminants. The initial tests were in rumen fluid batch culture systems to determine the effect of the compound on volatile fatty acid/methane ratios (VFA/CH4). […] Test Procedure: A 50/50 mixture of ground corn and ground alfalfa was used as the substrate for the subject rumen fluid batch culture test. The compound (Formula IV ) was present in the rumen fluid in three separate test samples at 8.33, 25 and 75 ppm, respectively. On day 1, rumen fluid was obtained from mature fistulated steers on 50/50 concentrate/roughage diets. The rumen fluid (RF) was strained through three layers of gauze cloth and equilibrated with C02 gas. Wheaton serum vials (125 ml) were prepared ahead with 20 ml continuous batch buffer and 100 mg 50/50 ground corn/ground alfalfa. Controls and compounds (dissolved in acetone) were set up according to desired levels. The vials were kept under C02 gas until 20 ml of the strained RF was added. The vials were sealed and incubated at 39°C for 24 hours in a hot water bath. On successive days, gas samples (0.1 ml) were drawn for gas chromatography analysis before transferring 20 ml of the batch culture to another vial containing 20 ml of buffer, 100 mg substrate, and the corresponding compound. The remaining 20 ml was inoculated with 2 ml 6N HC1 and centrifuged at 15,000 rpm for 15 minutes. Ether extracts were prepared for volatile fatty acid (VFA) analysis. Some minor adjustments were made in the termperatures on the Hewlett-Packard 5750 Gas-Liquid Chromatograph used for VFA analysis when the glass column used was changed from 1/4 inch diameter to 1/8 inch diameter. Injection Port = 220°C Column Oven = 170°C Flame Detector = 250°C Only 4 minutes was needed to record the sample instead of the previous 7 minutes.
# [1] = 8.33 μg/ml, total produced on Day 10
substance,measurement,setting,value
"2,2'-(4,5-diphenyl-2H-imidazol-2-ylidene)bispyridine with CuCl2(1/1) [Formula IV Compound]",AA,"8.33 µg/ml, day 2",0.16 µmol/mL
same,CH4,"8.33 µg/ml, day 2",204 µ Moles
same,H2,"8.33 µg/ml, day 2",0 µ Moles
same,HAc (acetate),"8.33 µg/ml, day 2",43.83
same,HBu (butyrate),"8.33 µg/ml, day 2",12.33
same,HFo (formate),"8.33 µg/ml, day 2",1.48
same,HPr (propionate),"8.33 µg/ml, day 2",11.81
same,HiBu (isobutyrate),"8.33 µg/ml, day 2",1.27
same,HiVal (isovalerate),"8.33 µg/ml, day 2",0
same,Protein,"8.33 µg/ml, day 2",0 mg/mL
same,Total,"8.33 µg/ml, day 2",70.71
same,AA,"8.33 µg/ml, day 3",0.13 µmol/mL
same,CH4,"8.33 µg/ml, day 3",157 µ Moles
same,H2,"8.33 µg/ml, day 3",0 µ Moles
same,HAc (acetate),"8.33 µg/ml, day 3",33.35
same,HBu (butyrate),"8.33 µg/ml, day 3",9.87
same,HFo (formate),"8.33 µg/ml, day 3",0.92
same,HPr (propionate),"8.33 µg/ml, day 3",12.17
same,HiBu (isobutyrate),"8.33 µg/ml, day 3",1.14
same,HiVal (isovalerate),"8.33 µg/ml, day 3",1.14
same,Protein,"8.33 µg/ml, day 3",0 mg/mL
same,Total,"8.33 µg/ml, day 3",58.58
same,CH4,"8.33 µg/ml, day 4",164 µ Moles
same,H2,"8.33 µg/ml, day 4",0 µ Moles
same,HAc (acetate),"8.33 µg/ml, day 4",34.54
same,HBu (butyrate),"8.33 µg/ml, day 4",7.77
same,HFo (formate),"8.33 µg/ml, day 4",0.40
same,HPr (propionate),"8.33 µg/ml, day 4",13.16
same,HiBu (isobutyrate),"8.33 µg/ml, day 4",0.68
same,HiVal (isovalerate),"8.33 µg/ml, day 4",2.01
same,Total,"8.33 µg/ml, day 4",58.54
same,CH4,"8.33 µg/ml, day 5",181 µ Moles
same,H2,"8.33 µg/ml, day 5",0 µ Moles
same,HAc (acetate),"8.33 µg/ml, day 5",33.15
same,HBu (butyrate),"8.33 µg/ml, day 5",7.14
same,HFo (formate),"8.33 µg/ml, day 5",0.30
same,HPr (propionate),"8.33 µg/ml, day 5",12.66
same,HiBu (isobutyrate),"8.33 µg/ml, day 5",0.35
same,HiVal (isovalerate),"8.33 µg/ml, day 5",1.17
same,Total,"8.33 µg/ml, day 5",54.76
same,AA,"8.33 µg/ml, day 6",0.11 µmol/mL
same,CH4,"8.33 µg/ml, day 6",176 µ Moles
same,H2,"8.33 µg/ml, day 6",0 µ Moles
same,HAc (acetate),"8.33 µg/ml, day 6",29.32
same,HBu (butyrate),"8.33 µg/ml, day 6",5.69
same,HFo (formate),"8.33 µg/ml, day 6",1.02
same,HPr (propionate),"8.33 µg/ml, day 6",11.08
same,HiBu (isobutyrate),"8.33 µg/ml, day 6",0.46
same,HiVal (isovalerate),"8.33 µg/ml, day 6",0
same,Protein,"8.33 µg/ml, day 6",0 mg/mL
same,Total,"8.33 µg/ml, day 6",47.57
same,AA,"8.33 µg/ml, day 7",0.11 µmol/mL
same,CH4,"8.33 µg/ml, day 7",139 µ Moles
same,H2,"8.33 µg/ml, day 7",0 µ Moles
same,HAc (acetate),"8.33 µg/ml, day 7",29.53
same,HBu (butyrate),"8.33 µg/ml, day 7",4.39
same,HFo (formate),"8.33 µg/ml, day 7",0.73
same,HPr (propionate),"8.33 µg/ml, day 7",13.12
same,HiBu (isobutyrate),"8.33 µg/ml, day 7",0.76
same,HiVal (isovalerate),"8.33 µg/ml, day 7",0.77
same,Protein,"8.33 µg/ml, day 7",0 mg/mL
same,Total,"8.33 µg/ml, day 7",49.29
same,AA,"8.33 µg/ml, day 8",0.09 µmol/mL
same,CH4,"8.33 µg/ml, day 8",158 µ Moles
same,H2,"8.33 µg/ml, day 8",0 µ Moles
same,HAc (acetate),"8.33 µg/ml, day 8",26.19
same,HBu (butyrate),"8.33 µg/ml, day 8",5.49
same,HFo (formate),"8.33 µg/ml, day 8",0.55
same,HPr (propionate),"8.33 µg/ml, day 8",13.48
same,HiBu (isobutyrate),"8.33 µg/ml, day 8",0.65
same,HiVal (isovalerate),"8.33 µg/ml, day 8",2.20
same,Protein,"8.33 µg/ml, day 8",0 mg/mL
same,Total,"8.33 µg/ml, day 8",48.55
same,AA,"8.33 µg/ml, day 9",0.10 µmol/mL
same,CH4,"8.33 µg/ml, day 9",157 µ Moles
same,H2,"8.33 µg/ml, day 9",0 µ Moles
same,HAc (acetate),"8.33 µg/ml, day 9",27.31
same,HBu (butyrate),"8.33 µg/ml, day 9",3.06
same,HFo (formate),"8.33 µg/ml, day 9",0.50
same,HPr (propionate),"8.33 µg/ml, day 9",13.73
same,HiBu (isobutyrate),"8.33 µg/ml, day 9",0.58
same,HiVal (isovalerate),"8.33 µg/ml, day 9",0.55
same,Protein,"8.33 µg/ml, day 9",0 mg/mL
same,Total,"8.33 µg/ml, day 9",45.71
same,AA,"8.33 µg/ml, day 10",0.24 µmol/mL
same,CH4,"8.33 µg/ml, day 10",159 µ Moles
same,H2,"8.33 µg/ml, day 10",0 µ Moles
same,HAc (acetate),"8.33 µg/ml, day 10",24.52
same,HBu (butyrate),"8.33 µg/ml, day 10",2.56
same,HFo (formate),"8.33 µg/ml, day 10",0.23
same,HPr (propionate),"8.33 µg/ml, day 10",12.89
same,HiBu (isobutyrate),"8.33 µg/ml, day 10",0.21
same,HiVal (isovalerate),"8.33 µg/ml, day 10",0.05
same,Protein,"8.33 µg/ml, day 10",0 mg/mL
same,Total,"8.33 µg/ml, day 10",40.45
same,Caloric Value of CH3,"8.33 µg/ml, produced on Day 10",33.54
same,Caloric Value of H2,"8.33 µg/ml, produced on Day 10",0
same,Caloric Value of HAc,"8.33 µg/ml, produced on Day 10",90.96
same,Caloric Value of HBu,"8.33 µg/ml, produced on Day 10",21.42
same,Caloric Value of HFo,"8.33 µg/ml, produced on Day 10",0
same,Caloric Value of HPr,"8.33 µg/ml, produced on Day 10",87.89
same,Caloric Value of HiBu,"8.33 µg/ml, produced on Day 10",0
same,Caloric Value of HiVal,"8.33 µg/ml, produced on Day 10",0
same,"Caloric Value, Total (VFA's)","8.33 µg/ml, produced on Day 10",200.27
same,Total Cal in VFA & Gas,"8.33 µg/ml, produced on Day 10",233.79 cal
same,CH4 produced on Day 10,[1],159
same,H2 produced on Day 10,[1],0
same,HAc (acetate) produced on Day 10,[1],434.4
same,HBu (butyrate) produced on Day 10,[1],41.2
same,HFo (formate) produced on Day 10,[1],0
same,HPr (propionate) produced on Day 10,[1],240.8
same,HiBu (isobutyrate) produced on Day 10,[1],0
same,HiVal (isovalerate) produced on Day 10,[1],0
same,Total VFA's produced on Day 10,[1],716.4
same,methane production,"25 µg/ml, by day 10",seemed to be recovering
same,AA,"25 µg/ml, day 2",0.16 µ Moles/ml
same,CH4,"25 µg/ml, day 2",197 µ Moles
same,H2,"25 µg/ml, day 2",0 µ Moles
same,HAc (acetate),"25 µg/ml, day 2",46.39
same,HBu (butyrate),"25 µg/ml, day 2",10.94
same,HFo (formate),"25 µg/ml, day 2",1.24
same,HPr (propionate),"25 µg/ml, day 2",12.69
same,HiBu (isobutyrate),"25 µg/ml, day 2",1.66
same,HiVal (isovalerate),"25 µg/ml, day 2",2.55
same,Protein,"25 µg/ml, day 2",0 mg/mL
same,Total,"25 µg/ml, day 2",75.45
same,AA,"25 µg/ml, day 3",0.17 µ Moles/ml
same,CH4,"25 µg/ml, day 3",166 µ Moles
same,H2,"25 µg/ml, day 3",0 µ Moles
same,HAc (acetate),"25 µg/ml, day 3",35.36
same,HBu (butyrate),"25 µg/ml, day 3",7.27
same,HFo (formate),"25 µg/ml, day 3",1.05
same,HPr (propionate),"25 µg/ml, day 3",12.93
same,HiBu (isobutyrate),"25 µg/ml, day 3",1.21
same,HiVal (isovalerate),"25 µg/ml, day 3",0.59
same,Protein,"25 µg/ml, day 3",0 mg/mL
same,Total,"25 µg/ml, day 3",58.40
same,CH4,"25 µg/ml, day 4",164 µ Moles
same,H2,"25 µg/ml, day 4",0 µ Moles
same,HAc (acetate),"25 µg/ml, day 4",36.52
same,HBu (butyrate),"25 µg/ml, day 4",6.38
same,HFo (formate),"25 µg/ml, day 4",0.71
same,HPr (propionate),"25 µg/ml, day 4",14.32
same,HiBu (isobutyrate),"25 µg/ml, day 4",0.86
same,HiVal (isovalerate),"25 µg/ml, day 4",1.33
same,Total,"25 µg/ml, day 4",60.11
same,CH4,"25 µg/ml, day 5",170 µ Moles
same,H2,"25 µg/ml, day 5",0 µ Moles
same,HAc (acetate),"25 µg/ml, day 5",34.06
same,HBu (butyrate),"25 µg/ml, day 5",6.63
same,HFo (formate),"25 µg/ml, day 5",0.44
same,HPr (propionate),"25 µg/ml, day 5",14.87
same,HiBu (isobutyrate),"25 µg/ml, day 5",0.56
same,HiVal (isovalerate),"25 µg/ml, day 5",0.78
same,Total,"25 µg/ml, day 5",57.33
same,AA,"25 µg/ml, day 6",0.11 µ Moles/ml
same,CH4,"25 µg/ml, day 6",143 µ Moles
same,H2,"25 µg/ml, day 6",0 µ Moles
same,HAc (acetate),"25 µg/ml, day 6",28.98
same,HBu (butyrate),"25 µg/ml, day 6",4.26
same,HFo (formate),"25 µg/ml, day 6",0.68
same,HPr (propionate),"25 µg/ml, day 6",13.87
same,HiBu (isobutyrate),"25 µg/ml, day 6",0.53
same,HiVal (isovalerate),"25 µg/ml, day 6",0.20
same,Protein,"25 µg/ml, day 6",0.01 mg/mL
same,Total,"25 µg/ml, day 6",48.49
same,AA,"25 µg/ml, day 7",0.24 µ Moles/ml
same,CH4,"25 µg/ml, day 7",58 µ Moles
same,H2,"25 µg/ml, day 7",8 µ Moles
same,HAc (acetate),"25 µg/ml, day 7",22.54
same,HBu (butyrate),"25 µg/ml, day 7",5.02
same,HFo (formate),"25 µg/ml, day 7",0.61
same,HPr (propionate),"25 µg/ml, day 7",13.54
same,HiBu (isobutyrate),"25 µg/ml, day 7",0.75
same,HiVal (isovalerate),"25 µg/ml, day 7",0.51
same,Protein,"25 µg/ml, day 7",0 mg/mL
same,Total,"25 µg/ml, day 7",42.95
same,AA,"25 µg/ml, day 8",0.22 µ Moles/ml
